Test systems include TPL-ELP10; TPL-GFIL16; TPL-EAK16; TPL-DKL6.
Holding throughout (assay): Lineweaver-Burk, initial rates
What all share (format): biochemical
Holding throughout (details): 20 °C, PLP 30 µM, 0.1-6 mM L-DOPA

For another assay, the system named is T1, TPL.
T1 construct: 6xHis tag kept, pET28a, E. coli BL21(DE3) host, His-Trap purified; 52 kDa; tetramer

For a further assay, the system named is TPL-18A. From the text:
Lineweaver-Burk, initial rates on TPL-18A | The Vmax of TPL-DKL6, TPL-ELP10, TPL-EAK16, TPL-18A, and TPL-GFIL16 was higher

The Km is the concentration of substrate that gives half-maximal velocity. Take `N[C@@H](Cc1ccc(O)c(O)c1)C(=O)O` [L-DOPA]: the Km with TPL-ELP10 worked out at 2680 ± 129 µM; in the assay with TPL-GFIL16, 2220 ± 14 µM; in the assay with TPL it was 2190 µM; with TPL-EAK16, 2360 ± 26 µM; in the assay with TPL-DKL6, 2320 ± 504 µM; with TPL-18A, 2180 ± 356 µM.

The values above are taken from paper PMC7508748, “Active tyrosine phenol-lyase aggregates induced by terminally attached functional peptides in Escherichia coli” (Journal of Industrial Microbiology & Biotechnology, 2020).
